Tests used:
[1] = test system: human patellar tendon allografts; settings: in vitro study, human patellar tendon allografts [98]; cited from earlier work
[2] = test system: Geobacillus stearothermophilus spores; test: Validation tests for disinfection of bio-indicator spore strips SAL 10^5; assay type: cell-based; settings: 50-55° C.
[3] = test system: Geobacillus stearothermophilus spores; test: Validation tests for disinfection of laboratory utensils sprinkled with spore suspension SAL 10^6; assay type: cell-based; settings: for Biological Result #not sterile/#tested: PES in solution 4 %

CC(=O)OO [PES, peracetic acid]
cytotoxic and pro-inflammatory effects [1]: neither cytotoxic nor pro-inflammatory effects | growth or proliferation of the spores after treatment ([2]; all spore strips tested at different PES concentrations and different processing times): no growth or proliferation of the spores could be detected | Biological Result #not sterile/#tested ([2]; test 1, PES in solution 6 %, PES in process chamber 3 g/m^3, process duration 240 min): 0/2 | Biological Result #not sterile/#tested ([2]; test 2, PES in solution 6 %, PES in process chamber 3 g/m^3, process duration 120 min): 0/1 | Biological Result #not sterile/#tested ([2]; test 3, PES in solution 6 %, PES in process chamber 1.7 g/m^3, process duration 150 min): 0/2 | Biological Result #not sterile/#tested ([2]; test 4, PES in solution 4 %, PES in process chamber 2 g/m^3, process duration 120 min): 0/1 | Biological Result #not sterile/#tested ([2]; test 5, PES in solution 4 %, PES in process chamber 1.9 g/m^3, process duration 120 min): 0/2 | Biological Result #not sterile/#tested ([2]; test 6, PES in solution 4 %, PES in process chamber 1.9 g/m^3, process duration 90 min): 0/2 | Biological Result #not sterile/#tested ([2]; test 7, PES in solution 4 %, PES in process chamber 1.9 g/m^3, process duration 60 min): 0/4 | Biological Result #not sterile/#tested ([2]; test 8, PES in solution 4 %, PES in process chamber 1.9 g/m^3, process duration 45 min): 0/1 | Biological Result #not sterile/#tested ([2]; test 9, PES in solution 4 %, PES in process chamber 1.9 g/m^3, process duration 40 min): 0/2 | Biological Result #not sterile/#tested ([2]; test 10, PES in solution 4 %, PES in process chamber 1.9 g/m^3, process duration 30 min): 0/2 | Biological Result #not sterile/#tested ([2]; test 11, PES in solution 4 %, PES in process chamber 1.9 g/m^3, process duration 20 min): 0/2 | Biological Result #not sterile/#tested ([2]; test 12, PES in solution 4 %, PES in process chamber 1.9 g/m^3, process duration 15 min): 0/1 | Biological Result #not sterile/#tested ([2]; test 13, PES in solution 4 %, PES in process chamber 1.9 g/m^3, process duration 10 min): 0/1 | Biological Result #not sterile/#tested ([2]; test 14, PES in solution 4 %, PES in process chamber 1.9 g/m^3, process duration 5 min): 0/1 | Biological Result #not sterile/#tested ([2]; test 15, PES in solution 4 %, PES in process chamber 1.7 g/m^3, process duration 20 min): 0/1 | Biological Result #not sterile/#tested ([2]; test 16, PES in solution 4 %, PES in process chamber 1.7 g/m^3, process duration 15 min): 0/1 | Biological Result #not sterile/#tested ([2]; test 17, PES in solution 4 %, PES in process chamber 1.5 g/m^3, process duration 240 min): 0/2 | Biological Result #not sterile/#tested ([2]; test 18, PES in solution 4 %, PES in process chamber 1.5 g/m^3, process duration 150 min): 0/2 | Biological Result #not sterile/#tested ([2]; test 19, PES in solution 4 %, PES in process chamber 1.3 g/m^3, process duration 20 min): 0/1 | Biological Result #not sterile/#tested ([2]; test 20, PES in solution 4 %, PES in process chamber 1.3 g/m^3, process duration 15 min): 0/1 | Biological Result #not sterile/#tested ([2]; test 21, PES in solution 4 %, PES in process chamber 0.94 g/m^3, process duration 60 min): 0/5 | Biological Result #not sterile/#tested ([2]; test 22, PES in solution 4 %, PES in process chamber 0.94 g/m^3, process duration 40 min): 0/1 | Biological Result #not sterile/#tested ([2]; test 23, PES in solution 4 %, PES in process chamber 0.94 g/m^3, process duration 30 min): 0/2 | Biological Result #not sterile/#tested ([2]; test 24, PES in solution 4 %, PES in process chamber 0.94 g/m^3, process duration 20 min): 0/2 | Biological Result #not sterile/#tested ([2]; test 25, PES in solution 4 %, PES in process chamber 0.94 g/m^3, process duration 15 min): 0/1 | Biological Result #not sterile/#tested ([2]; test 26, PES in solution 4 %, PES in process chamber 0.94 g/m^3, process duration 10 min): 0/1 | Biological Result #not sterile/#tested ([2]; test 27, PES in solution 4 %, PES in process chamber 0.94 g/m^3, process duration 5 min): 0/1 | Biological Result #not sterile/#tested ([2]; test 28, PES in solution 4 %, PES in process chamber 0.47 g/m^3, process duration 60 min): 0/1 | Biological Result #not sterile/#tested ([2]; test 29, PES in solution 4 %, PES in process chamber 0.47 g/m^3, process duration 30 min): 0/1 | Biological Result #not sterile/#tested ([2]; test 30, PES in solution 4 %, PES in process chamber 0.47 g/m^3, process duration 15 min): 0/1 | Biological Result #not sterile/#tested ([2]; test 31, PES in solution 4 %, PES in process chamber 0.47 g/m^3, process duration 10 min): 0/1 | Biological Result #not sterile/#tested ([2]; test 32, PES in solution 4 %, PES in process chamber 0.47 g/m^3, process duration 5 min): 0/1 | Biological Result #not sterile/#tested ([3]; test 5, PES in process chamber 1.9 g/m^3, process duration 120 min): 0/4 | Biological Result #not sterile/#tested ([3]; test 7, PES in process chamber 1.9 g/m^3, process duration 60 min): 0/4 | Biological Result #not sterile/#tested ([3]; test 8, PES in process chamber 1.9 g/m^3, process duration 45 min): 0/4 | Biological Result #not sterile/#tested ([3]; test 12, PES in process chamber 1.9 g/m^3, process duration 15 min): 0/4 | Biological Result #not sterile/#tested ([3]; test 13, PES in process chamber 1.9 g/m^3, process duration 10 min): 0/4 | Biological Result #not sterile/#tested ([3]; test 14, PES in process chamber 1.9 g/m^3, process duration 5 min): 0/4 | Biological Result #not sterile/#tested ([3]; test 15, PES in process chamber 1.7 g/m^3, process duration 20 min): 0/4 | Biological Result #not sterile/#tested ([3]; test 16, PES in process chamber 1.7 g/m^3, process duration 15 min): 0/4 | Biological Result #not sterile/#tested ([3]; test 19, PES in process chamber 1.3 g/m^3, process duration 20 min): 0/4 | Biological Result #not sterile/#tested ([3]; test 20, PES in process chamber 1.3 g/m^3, process duration 15 min): 0/4 | Biological Result #not sterile/#tested ([3]; test 21, PES in process chamber 0.94 g/m^3, process duration 60 min): 0/4 | Biological Result #not sterile/#tested ([3]; test 22, PES in process chamber 0.94 g/m^3, process duration 40 min): 0/4 | Biological Result #not sterile/#tested ([3]; test 23, PES in process chamber 0.94 g/m^3, process duration 30 min, not sterile: pipette): (pipette) 1/8 | Biological Result #not sterile/#tested ([3]; test 24, PES in process chamber 0.94 g/m^3, process duration 20 min): 0/8 | Biological Result #not sterile/#tested ([3]; test 25, PES in process chamber 0.94 g/m^3, process duration 15 min, not sterile: pipette): (pipette) 1/4 | Biological Result #not sterile/#tested ([3]; test 26, PES in process chamber 0.94 g/m^3, process duration 10 min): 0/4 | Biological Result #not sterile/#tested ([3]; test 27, PES in process chamber 0.94 g/m^3, process duration 5 min, not sterile: pipette): (pipette) 1/4 | Biological Result #not sterile/#tested ([3]; test 28, PES in process chamber 0.47 g/m^3, process duration 60 min): 0/4 | Biological Result #not sterile/#tested ([3]; test 29, PES in process chamber 0.47 g/m^3, process duration 30 min): 0/4 | Biological Result #not sterile/#tested ([3]; test 30, PES in process chamber 0.47 g/m^3, process duration 15 min, not sterile: Eppi): (Eppi) 1/4 | Biological Result #not sterile/#tested ([3]; test 31, PES in process chamber 0.47 g/m^3, process duration 10 min, not sterile: pipette): (pipette) 1/4 | Biological Result #not sterile/#tested ([3]; test 32, PES in process chamber 0.47 g/m^3, process duration 5 min, not sterile: mask, pipette): (mask, pipette) 2/4 | spore growth after seven days in nutrient solution ([3]; various tests, relatively low PES concentration in the process chamber and short process duration): spore growth was observed after seven days
